Measured values reported in patent US20170071944A1, “MODULATORS OF TOLL-LIKE RECEPTORS FOR THE TREATMENT OF HIV” (Gilead Sciences, Inc., priority 2015, published 2017).

Test system: PBMC cultures from HIV-1 infected subjects on cART
Test: Induced cytokines and chemokines in PBMC cultures from HIV-1 infected subjects on cART (multiplexed Luminex)
Format: cell-based, human
Conditions: day 2, geometric mean, 4 subjects
Method: To further characterize the immune modulatory effect of TLR8 agonists in cells from HIV-infected subjects, the production of secreted cytokines and chemokines was measured in PBMCs from 4 HIV-infected subjects on suppressive cART (anonymized participant IDs 180-183). PBMCs were purified, as described in Example 121, and immediately added to tissue culture plates pre-equilibrated at 37° C. with media containing DMSO (vehicle control) or with the TLR8 modulating compound Example 15 at concentrations ranging from 1.0 nM to 10.0 μM. On day 2 after treatment, cell-free culture supernatants were collected and frozen at −80 C for subsequent analysis. Frozen supernatants were thawed at room temperature, and the indicated cytokines and chemokines were quantified with a custom multiplexed xMAP Luminex® assay following the manufacturer's instructions (Thermo Fisher Scientific Inc., Grand Island, N.Y., custom-designed kit).
Data are expressed as geometric mean cytokine values (pg/ml) obtained from 4 subjects' PBMCs. Geometric mean fold-activation from three independent incubation samples for each condition. Fold (fold-activation) is calculated as a ratio of the concentration of cytokine detected in cell culture supernatants from agonist treated samples relative to DMSO treated samples

CCCC[C@H](CO)Nc1nc(N)nc2cccnc12 [Example 15]
I-TAC Fold vs DMSO (Ex 15 1000 nM): 2 fold | IFN-α (Ex 15 1000 nM): 6 pg/mL | IFN-α Fold vs DMSO (Ex 15 1000 nM): 3 fold | IFN-γ (Ex 15 1000 nM): 5693 pg/mL | IFN-γ Fold vs DMSO (Ex 15 1000 nM): 228 fold | IL-6 pg/ml (Ex 15 1000 nM): 22600 pg/mL | IL-8 pg/ml (Ex 15 1000 nM): 1565 pg/mL | IL-10 pg/ml (Ex 15 1000 nM): 3719 pg/mL | IL-18 pg/ml (Ex 15 1000 nM): 191 pg/mL | IL-23 pg/ml (Ex 15 1000 nM): 465 pg/mL | IL-1RA (Ex 15 1000 nM): 164731 pg/mL | IL-1RA Fold vs DMSO (Ex 15 1000 nM): 46 fold | IL-1β (Ex 15 1000 nM): 4735 pg/mL | IL-1β Fold vs DMSO (Ex 15 1000 nM): 1578 fold | IL-6 Fold vs DMSO (Ex 15 1000 nM): 290 fold | IL-8 Fold vs DMSO (Ex 15 1000 nM): 5 fold | IL-10 Fold vs DMSO (Ex 15 1000 nM): 219 fold | IL-12p70 pg/ml (Ex 15 1000 nM): 524 pg/mL | IL-12p70 Fold vs DMSO (Ex 15 1000 nM): 175 fold | IL-18 Fold vs DMSO (Ex 15 1000 nM): 11 fold | IL-23 Fold vs DMSO (Ex 15 1000 nM): 8 fold | IP-10 pg/ml (Ex 15 1000 nM): 741 pg/mL | IP-10 Fold vs DMSO (Ex 15 1000 nM): 3 fold | MCP-1 pg/ml (Ex 15 1000 nM): 1464 pg/mL | MCP-1 Fold vs DMSO (Ex 15 1000 nM): 22 fold | MIP-1α (Ex 15 1000 nM): 18689 pg/mL | MIP-1α Fold vs DMSO (Ex 15 1000 nM): 374 fold | MIP-1β (Ex 15 1000 nM): 415739 pg/mL | MIP-1β Fold vs DMSO (Ex 15 1000 nM): 340 fold | MIP-3α (Ex 15 1000 nM): 1085 pg/mL | MIP-3α Fold vs DMSO (Ex 15 1000 nM): 42 fold | MMP-1 pg/ml (Ex 15 1000 nM): 317 pg/mL | MMP-1 Fold vs DMSO (Ex 15 1000 nM): 3 fold | TNF-α (Ex 15 1000 nM): 34880 pg/mL | TNF-α Fold vs DMSO (Ex 15 1000 nM): 1661 fold | GRO-α (Ex 15 3000 nM): 418 pg/mL | GRO-α Fold vs DMSO (Ex 15 3000 nM): 18 fold | Granzyme B (Ex 15 3000 nM): 857 pg/mL | Granzyme B Fold vs DMSO (Ex 15 3000 nM): 4 fold | I-TAC (Ex 15 3000 nM): 98 pg/mL | I-TAC Fold vs DMSO (Ex 15 3000 nM): 2 fold | IFN-α (Ex 15 3000 nM): 6 pg/mL | IFN-α Fold vs DMSO (Ex 15 3000 nM): 3 fold | IFN-γ (Ex 15 3000 nM): 3586 pg/mL | IFN-γ Fold vs DMSO (Ex 15 3000 nM): 143 fold | IL-6 pg/ml (Ex 15 3000 nM): 15198 pg/mL | IL-8 pg/ml (Ex 15 3000 nM): 1139 pg/mL | IL-10 pg/ml (Ex 15 3000 nM): 4747 pg/mL | IL-18 pg/ml (Ex 15 3000 nM): 308 pg/mL | IL-23 pg/ml (Ex 15 3000 nM): 1163 pg/mL | IL-1RA (Ex 15 3000 nM): 88340 pg/mL | IL-1RA Fold vs DMSO (Ex 15 3000 nM): 25 fold | IL-1β (Ex 15 3000 nM): 5302 pg/mL | IL-1β Fold vs DMSO (Ex 15 3000 nM): 1767 fold | IL-6 Fold vs DMSO (Ex 15 3000 nM): 195 fold | IL-8 Fold vs DMSO (Ex 15 3000 nM): 4 fold | IL-10 Fold vs DMSO (Ex 15 3000 nM): 279 fold | IL-12p70 pg/ml (Ex 15 3000 nM): 381 pg/mL | IL-12p70 Fold vs DMSO (Ex 15 3000 nM): 127 fold
